Assay results: patent US20220281848A1, “PYRAZOLE-SUBSTITUTED PYRROLIDINONES AS HERBICIDES” (FMC Corporation, priority 2019, published 2022)

Key:
wheat = assay: Test D post-emergence, wheat seed treated with a herbicide safener; type: in vivo; conditions: "Cereals" Postemergent
Procedure, shortened: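 Herbicidal injury on safener-protected cereals: application timings were one day after sowing for pre-emergence and about 12 days of cultivation for post-emergence. Assessment came 20 DAA or 15 d later respectively, on a scale where 100 meant total damage.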

plants = assay: Test D post-emergence, other plants of Tables D2 and D4; type: in vivo; conditions: for ALOMY damage rating (100=total damage to plant; 0=no damage to plant) / AVEFA damage rating (100=total damage to plant; 0=no damage to plant) / BEAVA damage rating (100=total damage to plant; 0=no damage to plant) / BROTE damage rating (100=total damage to plant; 0=no damage to plant) / BRSNN damage rating (100=total damage to plant; 0=no damage to plant) / CHEAL damage rating (100=total damage to plant; 0=no damage to plant) / GALAP damage rating (100=total damage to plant; 0=no damage to plant) / HORVW damage rating (100=total damage to plant; 0=no damage to plant) / KCHSC damage rating (100=total damage to plant; 0=no damage to plant) / LOLPE damage rating (100=total damage to plant; 0=no damage to plant) / POAAN damage rating (100=total damage to plant; 0=no damage to plant) / POLCO damage rating (100=total damage to plant; 0=no damage to plant) / SINAR damage rating (100=total damage to plant; 0=no damage to plant) / STEME damage rating (100=total damage to plant; 0=no damage to plant) / VERPE damage rating (100=total damage to plant; 0=no damage to plant): "Cereals" Postemergent, evaluated after 15 d; for damage to plant (100=total damage to plant; 0=no damage to plant), ABUTH / damage to plant (100=total damage to plant; 0=no damage to plant), AMARE / damage to plant (100=total damage to plant; 0=no damage to plant), BIDPI / damage to plant (100=total damage to plant; 0=no damage to plant), BRAPL / damage to plant (100=total damage to plant; 0=no damage to plant), CYPES / damage to plant (100=total damage to plant; 0=no damage to plant), DIGSA / damage to plant (100=total damage to plant; 0=no damage to plant), ECHCG / damage to plant (100=total damage to plant; 0=no damage to plant), ELEIN / damage to plant (100=total damage to plant; 0=no damage to plant), EPHHL / damage to plant (100=total damage to plant; 0=no damage to plant), GLXMA / damage to plant (100=total damage to plant; 0=no damage to plant), IPOHE / damage to plant (100=total damage to plant; 0=no damage to plant), ORYSA / damage to plant (100=total damage to plant; 0=no damage to plant), PANMI / damage to plant (100=total damage to plant; 0=no damage to plant), SETFA / damage to plant (100=total damage to plant; 0=no damage to plant), SORVU: post-emergence
Procedure, shortened: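 Damage was rated visually from 0 (none) to 100 (total), at 20 DAA for pre-emergence and 15 d for post-emergence. Plants grew from safener-treated seed in a glasshouse at 24/18° C. or 20/16° C. day/night, 65% humidity, watered twice daily.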

CN1CC(c2cc(C(F)(F)F)n(C)n2)C(C(=O)Nc2ccc(F)cc2C(C)(F)F)C1=O (racemic) [Compound 26]
50: damage to plant (100=total damage to plant; 0=no damage to plant), BRAPL (plants; rate 130, evaluated after 15 d)
20: POAAN damage rating (100=total damage to plant; 0=no damage to plant) (plants; Rates 250)
40: TRZAW damage rating (100=total damage to plant; 0=no damage to plant) (wheat; Rates 500, evaluated after 15 d) | ALOMY damage rating (100=total damage to plant; 0=no damage to plant) (plants; Rates 500) | HORVW damage rating (100=total damage to plant; 0=no damage to plant) (plants; Rates 500)
0: TRZAW damage rating (100=total damage to plant; 0=no damage to plant) (wheat; Rates 130, evaluated after 15 d) | TRZAW damage rating (100=total damage to plant; 0=no damage to plant) (wheat; Rates 250, evaluated after 15 d) | ALOMY damage rating (100=total damage to plant; 0=no damage to plant) (plants; Rates 130) | ALOMY damage rating (100=total damage to plant; 0=no damage to plant) (plants; Rates 250) | AVEFA damage rating (100=total damage to plant; 0=no damage to plant) (plants; Rates 130) | BEAVA damage rating (100=total damage to plant; 0=no damage to plant) (plants; Rates 130) | BEAVA damage rating (100=total damage to plant; 0=no damage to plant) (plants; Rates 250) | BEAVA damage rating (100=total damage to plant; 0=no damage to plant) (plants; Rates 500) | BROTE damage rating (100=total damage to plant; 0=no damage to plant) (plants; Rates 130) | BROTE damage rating (100=total damage to plant; 0=no damage to plant) (plants; Rates 250) | BROTE damage rating (100=total damage to plant; 0=no damage to plant) (plants; Rates 500) | BRSNN damage rating (100=total damage to plant; 0=no damage to plant) (plants; Rates 130) | BRSNN damage rating (100=total damage to plant; 0=no damage to plant) (plants; Rates 250) | BRSNN damage rating (100=total damage to plant; 0=no damage to plant) (plants; Rates 500) | CHEAL damage rating (100=total damage to plant; 0=no damage to plant) (plants; Rates 130) | CHEAL damage rating (100=total damage to plant; 0=no damage to plant) (plants; Rates 250) | GALAP damage rating (100=total damage to plant; 0=no damage to plant) (plants; Rates 130) | GALAP damage rating (100=total damage to plant; 0=no damage to plant) (plants; Rates 250) | HORVW damage rating (100=total damage to plant; 0=no damage to plant) (plants; Rates 130) | HORVW damage rating (100=total damage to plant; 0=no damage to plant) (plants; Rates 250) | KCHSC damage rating (100=total damage to plant; 0=no damage to plant) (plants; Rates 130) | KCHSC damage rating (100=total damage to plant; 0=no damage to plant) (plants; Rates 250) | KCHSC damage rating (100=total damage to plant; 0=no damage to plant) (plants; Rates 500) | LOLPE damage rating (100=total damage to plant; 0=no damage to plant) (plants; Rates 130) | LOLPE damage rating (100=total damage to plant; 0=no damage to plant) (plants; Rates 250) | POLCO damage rating (100=total damage to plant; 0=no damage to plant) (plants; Rates 130) | POLCO damage rating (100=total damage to plant; 0=no damage to plant) (plants; Rates 250) | POLCO damage rating (100=total damage to plant; 0=no damage to plant) (plants; Rates 500) | SINAR damage rating (100=total damage to plant; 0=no damage to plant) (plants; Rates 130) | SINAR damage rating (100=total damage to plant; 0=no damage to plant) (plants; Rates 250) | STEME damage rating (100=total damage to plant; 0=no damage to plant) (plants; Rates 130) | STEME damage rating (100=total damage to plant; 0=no damage to plant) (plants; Rates 250) | STEME damage rating (100=total damage to plant; 0=no damage to plant) (plants; Rates 500) | VERPE damage rating (100=total damage to plant; 0=no damage to plant) (plants; Rates 130) | VERPE damage rating (100=total damage to plant; 0=no damage to plant) (plants; Rates 250) | damage to plant (100=total damage to plant; 0=no damage to plant), ABUTH (plants; rate 130, evaluated after 15 d) | damage to plant (100=total damage to plant; 0=no damage to plant), ABUTH (plants; rate 250, evaluated after 15 d) | damage to plant (100=total damage to plant; 0=no damage to plant), ABUTH (plants; rate 500, evaluated after 15 d) | damage to plant (100=total damage to plant; 0=no damage to plant), AMARE (plants; rate 130, evaluated after 15 d) | damage to plant (100=total damage to plant; 0=no damage to plant), AMARE (plants; rate 250, evaluated after 15 d) | damage to plant (100=total damage to plant; 0=no damage to plant), AMARE (plants; rate 500, evaluated after 15 d) | damage to plant (100=total damage to plant; 0=no damage to plant), BIDPI (plants; rate 130, evaluated after 15 d) | damage to plant (100=total damage to plant; 0=no damage to plant), BIDPI (plants; rate 250, evaluated after 15 d) | damage to plant (100=total damage to plant; 0=no damage to plant), BIDPI (plants; rate 500, evaluated after 15 d) | damage to plant (100=total damage to plant; 0=no damage to plant), CYPES (plants; rate 130, evaluated after 15 d) | damage to plant (100=total damage to plant; 0=no damage to plant), CYPES (plants; rate 250, evaluated after 15 d) | damage to plant (100=total damage to plant; 0=no damage to plant), CYPES (plants; rate 500, evaluated after 15 d) | damage to plant (100=total damage to plant; 0=no damage to plant), DIGSA (plants; rate 130, evaluated after 15 d) | damage to plant (100=total damage to plant; 0=no damage to plant), ECHCG (plants; rate 130, evaluated after 15 d) | damage to plant (100=total damage to plant; 0=no damage to plant), ECHCG (plants; rate 250, evaluated after 15 d) | damage to plant (100=total damage to plant; 0=no damage to plant), ELEIN (plants; rate 130, evaluated after 15 d) | damage to plant (100=total damage to plant; 0=no damage to plant), ELEIN (plants; rate 250, evaluated after 15 d) | damage to plant (100=total damage to plant; 0=no damage to plant), EPHHL (plants; rate 130, evaluated after 15 d) | damage to plant (100=total damage to plant; 0=no damage to plant), GLXMA (plants; rate 130, evaluated after 15 d) | damage to plant (100=total damage to plant; 0=no damage to plant), GLXMA (plants; rate 250, evaluated after 15 d) | damage to plant (100=total damage to plant; 0=no damage to plant), GLXMA (plants; rate 500, evaluated after 15 d) | damage to plant (100=total damage to plant; 0=no damage to plant), IPOHE (plants; rate 130, evaluated after 15 d) | damage to plant (100=total damage to plant; 0=no damage to plant), IPOHE (plants; rate 250, evaluated after 15 d) | damage to plant (100=total damage to plant; 0=no damage to plant), IPOHE (plants; rate 500, evaluated after 15 d) | damage to plant (100=total damage to plant; 0=no damage to plant), ORYSA (plants; rate 130, evaluated after 15 d) | damage to plant (100=total damage to plant; 0=no damage to plant), ORYSA (plants; rate 250, evaluated after 15 d) | damage to plant (100=total damage to plant; 0=no damage to plant), ORYSA (plants; rate 500, evaluated after 15 d) | damage to plant (100=total damage to plant; 0=no damage to plant), PANMI (plants; rate 130, evaluated after 15 d) | damage to plant (100=total damage to plant; 0=no damage to plant), PANMI (plants; rate 250, evaluated after 15 d) | damage to plant (100=total damage to plant; 0=no damage to plant), PANMI (plants; rate 500, evaluated after 15 d) | damage to plant (100=total damage to plant; 0=no damage to plant), SETFA (plants; rate 130, evaluated after 15 d) | damage to plant (100=total damage to plant; 0=no damage to plant), SORVU (plants; rate 130, evaluated after 15 d) | damage to plant (100=total damage to plant; 0=no damage to plant), SORVU (plants; rate 250, evaluated after 15 d) | damage to plant (100=total damage to plant; 0=no damage to plant), SORVU (plants; rate 500, evaluated after 15 d)
30: POAAN damage rating (100=total damage to plant; 0=no damage to plant) (plants; Rates 130)
60: AVEFA damage rating (100=total damage to plant; 0=no damage to plant) (plants; Rates 500) | GALAP damage rating (100=total damage to plant; 0=no damage to plant) (plants; Rates 500) | LOLPE damage rating (100=total damage to plant; 0=no damage to plant) (plants; Rates 500) | damage to plant (100=total damage to plant; 0=no damage to plant), BRAPL (plants; rate 250, evaluated after 15 d) | damage to plant (100=total damage to plant; 0=no damage to plant), DIGSA (plants; rate 500, evaluated after 15 d) | damage to plant (100=total damage to plant; 0=no damage to plant), SETFA (plants; rate 250, evaluated after 15 d) | damage to plant (100=total damage to plant; 0=no damage to plant), SETFA (plants; rate 500, evaluated after 15 d)
10: AVEFA damage rating (100=total damage to plant; 0=no damage to plant) (plants; Rates 250) | CHEAL damage rating (100=total damage to plant; 0=no damage to plant) (plants; Rates 500) | SINAR damage rating (100=total damage to plant; 0=no damage to plant) (plants; Rates 500) | damage to plant (100=total damage to plant; 0=no damage to plant), DIGSA (plants; rate 250, evaluated after 15 d) | damage to plant (100=total damage to plant; 0=no damage to plant), ECHCG (plants; rate 500, evaluated after 15 d) | damage to plant (100=total damage to plant; 0=no damage to plant), ELEIN (plants; rate 500, evaluated after 15 d) | damage to plant (100=total damage to plant; 0=no damage to plant), EPHHL (plants; rate 250, evaluated after 15 d) | damage to plant (100=total damage to plant; 0=no damage to plant), EPHHL (plants; rate 500, evaluated after 15 d)
80: POAAN damage rating (100=total damage to plant; 0=no damage to plant) (plants; Rates 500) | VERPE damage rating (100=total damage to plant; 0=no damage to plant) (plants; Rates 500) | damage to plant (100=total damage to plant; 0=no damage to plant), BRAPL (plants; rate 500, evaluated after 15 d)
